Values quoted from earlier work, collected in patent publication EP3305282A2, “COMPOSITION OF PRANLUKAST-CONTAINING SOLID PREPARATION WITH IMPROVED BIOAVAILABILITY AND METHOD FOR PREPARING SAME” (Sama Pharm Co., Ltd., priority 2015, dated 2016).

Details: pranlukast drug substance, BCS Class II

## O=C(Nc1cccc2c(=O)cc(-c3nnn[nH]3)oc12)c1ccc(OCCCCc2ccccc2)cc1 [Pranlukast, 4-oxo-8-[4-(4-phenylbutoxy)benzoylamino]-2-(tetrazol-5-yl)-4H-1-benzopyran hemihydrate]
  solubility: 1.2 µg/mL
